Measured values published in PubChem BioAssay AID330 (DTP/NCI, 2004).
Several values for one entry are separate records, joined by “and”; a condition that tells them apart may be missing. Equal values may be shown once. Toxic doses and inconclusive results are not listed.

Tested on: P388 leukemia ip, CD2F1 mice, survival T/C
Assay: NCI In Vivo Anticancer Drug Screen. Data for tumor model P388 Leukemia (intraperitoneal) in CD2F1 (CDF1) mice
Conditions: endpoint: median survival time, higher = longer survival
Procedure, shortened: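 Mice carrying the transplanted tumor received test compound or vehicle. Survival was recorded in each group, and the value is the treated-group measurement divided by that of the vehicle-treated control group.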

[1] = dose: 50.0 mg/kg/injection, schedule: Q01DX009 (ip), vehicle: Klucel (hydroxypropylcellulose) (HPC)
[2] = dose: 100.0 mg/kg/injection, schedule: Q01DX009 (ip), vehicle: Klucel (hydroxypropylcellulose) (HPC)
[3] = dose: 60.0 mg/kg/injection, schedule: Q01DX005 (ip), vehicle: saline with Tween-80
[4] = dose: 50.0 mg/kg/injection, schedule: Q01DX005 (ip), vehicle: Klucel (hydroxypropylcellulose) (HPC)
[5] = dose: 100.0 mg/kg/injection, schedule: Q01DX005 (ip), vehicle: Klucel (hydroxypropylcellulose) (HPC)
[6] = dose: 200.0 mg/kg/injection, schedule: Q01DX005 (ip), vehicle: Klucel (hydroxypropylcellulose) (HPC)
[7] = dose: 50.0 mg/kg/injection, schedule: Q01DX005 (ip), vehicle: saline with Tween-80
[8] = dose: 100.0 mg/kg/injection, schedule: Q01DX005 (ip), vehicle: saline with Tween-80
[9] = dose: 200.0 mg/kg/injection, schedule: Q01DX005 (ip), vehicle: saline with Tween-80
[10] = dose: 50.0 mg/kg/injection, schedule: Q01DX005 (ip), vehicle: saline
[11] = dose: 100.0 mg/kg/injection, schedule: Q01DX005 (ip), vehicle: saline
[12] = dose: 120.0 mg/kg/injection, schedule: Q01DX005 (ip), vehicle: saline with Tween-80
[13] = dose: 240.0 mg/kg/injection, schedule: Q01DX005 (ip), vehicle: saline with Tween-80

O=c1[nH]ncn1-c1ccccc1
T/C (dose: 12.5 mg/kg/injection, schedule: Q01DX009 (ip), vehicle: Klucel (hydroxypropylcellulose) (HPC)): 100 % of control
T/C (dose: 25.0 mg/kg/injection, schedule: Q01DX009 (ip), vehicle: Klucel (hydroxypropylcellulose) (HPC)): 109 % of control
T/C [1]: 98 % of control
T/C [2]: 106 % of control

O=C(O)c1ccccc1-c1nc2ccccc2[nH]1
T/C (dose: 100.0 mg/kg/injection, schedule: Q01DX001 (ip), vehicle: saline with Tween-80): 99 % of control

COc1ccc2c(c1OC)CC(=O)N1CCc3cc4c(cc3C(=O)C21)OCO4 (stereo unspecified)
T/C (dose: 2.5 mg/kg/injection, schedule: Q01DX005 (ip), vehicle: saline + Tween-80 + alcohol): 104 % of control
T/C (dose: 5.0 mg/kg/injection, schedule: Q01DX005 (ip), vehicle: saline + Tween-80 + alcohol): 101 % of control
T/C (dose: 10.0 mg/kg/injection, schedule: Q01DX005 (ip), vehicle: saline + Tween-80 + alcohol): 100 % of control
T/C (dose: 20.0 mg/kg/injection, schedule: Q01DX005 (ip), vehicle: saline + Tween-80 + alcohol): 107 % of control

O=C(Nc1cc2cc([N+](=O)[O-])ccc2oc1=O)c1cccs1
T/C (dose: 15.0 mg/kg/injection, schedule: Q01DX005 (ip), vehicle: saline with Tween-80): 99 % of control
T/C (dose: 30.0 mg/kg/injection, schedule: Q01DX005 (ip), vehicle: saline with Tween-80): 90 % of control
T/C [3]: 91 % of control

Nc1ccc(S(=O)O)cc1
T/C (dose: 100.0 mg/kg/injection, schedule: Q04DX003 (ip), vehicle: saline with Tween-80): 100 % of control
T/C (dose: 200.0 mg/kg/injection, schedule: Q04DX003 (ip), vehicle: saline with Tween-80): 100 % of control
T/C (dose: 400.0 mg/kg/injection, schedule: Q04DX003 (ip), vehicle: saline with Tween-80): 100 % of control

Nc1ccc2snc3c2c1C(=O)c1ccccc1-3
T/C [4]: 99 % of control
T/C [5]: 91 % of control
T/C [6]: 100 % of control

O=S(=O)(O)CN(CS(=O)(=O)O)c1nc(N(CS(=O)(=O)O)CS(=O)(=O)O)nc(N(CS(=O)(=O)O)CS(=O)(=O)O)n1
T/C [7]: 92 % of control
T/C [8]: 99 % of control
T/C [9]: 101 % of control

O=C(Oc1c(OC(=O)c2ccccc2)c(OC(=O)c2ccccc2)c(OC(=O)c2ccccc2)c(OC(=O)c2ccccc2)c1OC(=O)c1ccccc1)c1ccccc1
T/C (dose: 100.0 mg/kg/injection, schedule: Q04DX002 (ip), vehicle: saline with Tween-80): 107 % of control
T/C (dose: 200.0 mg/kg/injection, schedule: Q04DX002 (ip), vehicle: saline with Tween-80): 94 % of control
T/C (dose: 400.0 mg/kg/injection, schedule: Q04DX002 (ip), vehicle: saline with Tween-80): 89 % of control

COc1ccccc1C1C(C#N)C(=O)NC(=O)C1C#N (stereo unspecified)
T/C [1]: 113 % of control
T/C [2]: 105 % of control
T/C (dose: 200.0 mg/kg/injection, schedule: Q01DX009 (ip), vehicle: Klucel (hydroxypropylcellulose) (HPC)): 105 % of control

CCOC(=O)/C(=C(\C)N)C1CC(=O)NC1=O (stereo unspecified)
T/C (dose: 25.0 mg/kg/injection, schedule: Q01DX009 (ip), vehicle: saline): 104 % of control
T/C (dose: 50.0 mg/kg/injection, schedule: Q01DX009 (ip), vehicle: saline): 104 % of control
T/C (dose: 100.0 mg/kg/injection, schedule: Q01DX009 (ip), vehicle: saline): 101 % of control
T/C (dose: 200.0 mg/kg/injection, schedule: Q01DX009 (ip), vehicle: saline): 107 % of control

OCCNCCN=C1CCC(=NCCNCCO)CC1
T/C [10]: 107 % of control
T/C [11]: 105 % of control

COc1ccc(C)cc1NC(=O)Sc1ccc(Cl)cc1
T/C (dose: 25.0 mg/kg/injection, schedule: Q01DX005 (ip), vehicle: saline with Tween-80): 110 % of control and 115 % of control
T/C (dose: 50.0 mg/kg/injection, schedule: Q01DX005 (ip), vehicle: saline + Tween-80 + alcohol): 117 % of control
T/C [7]: 120 % of control and 123 % of control
T/C (dose: 100.0 mg/kg/injection, schedule: Q01DX005 (ip), vehicle: saline + Tween-80 + alcohol): 119 % of control
T/C [8]: 122 % of control
T/C [9]: 106 % of control

C1CCC2(CC1)CSC2.[Br][Hg][Br]
T/C (dose: 6.25 mg/kg/injection, schedule: Q01DX001 (ip), vehicle: saline with Tween-80): 89 % of control
T/C (dose: 12.5 mg/kg/injection, schedule: Q01DX001 (ip), vehicle: saline with Tween-80): 87 % of control

O=C(OC(C(=O)O)C(OC(=O)c1ccccc1)C(=O)O)c1ccccc1 (stereo unspecified)
T/C [7]: 106 % of control
T/C [8]: 99 % of control
T/C [9]: 98 % of control

Cc1cccc(C2(Br)C(=O)c3ccccc3C2=O)c1
T/C (dose: 100.0 mg/kg/injection, schedule: Q04DX002 (ip), vehicle: saline): 102 % of control
T/C (dose: 200.0 mg/kg/injection, schedule: Q04DX002 (ip), vehicle: saline): 103 % of control
T/C (dose: 400.0 mg/kg/injection, schedule: Q04DX002 (ip), vehicle: saline): 102 % of control

COC1(OC)C2(Cl)C(Cl)=C(Cl)C1(Cl)C1CCCCC12 (stereo unspecified)
T/C [3]: 101 % of control
T/C [12]: 102 % of control
T/C [13]: 104 % of control

CCOC(=O)/C(NC(=O)c1ccccc1)=C(\NC(=O)c1ccccc1)C(=O)OCC
T/C (dose: 60.0 mg/kg/injection, schedule: Q01DX005 (ip), vehicle: saline): 104 % of control
T/C (dose: 120.0 mg/kg/injection, schedule: Q01DX005 (ip), vehicle: saline): 96 % of control
T/C (dose: 240.0 mg/kg/injection, schedule: Q01DX005 (ip), vehicle: saline): 96 % of control

N#CC(CCCCl)(c1ccccc1)c1ccccc1
T/C (dose: 100.0 mg/kg/injection, schedule: Q04DX002 (ip), vehicle: Klucel (hydroxypropylcellulose) (HPC)): 107 % of control
T/C (dose: 200.0 mg/kg/injection, schedule: Q04DX002 (ip), vehicle: Klucel (hydroxypropylcellulose) (HPC)): 108 % of control
T/C (dose: 400.0 mg/kg/injection, schedule: Q04DX002 (ip), vehicle: Klucel (hydroxypropylcellulose) (HPC)): 108 % of control

Nc1nc(N)c2c(n1)CCC(C(=O)Nc1ccc(Cl)cc1)C2 (stereo unspecified)
T/C [7]: 94 % of control
T/C [8]: 96 % of control
T/C [9]: 96 % of control

CCC(C)N(CCNc1cc(OC)cc2cccnc12)CCC(C)C (stereo unspecified)
T/C [10]: 100 % of control
T/C [11]: 97 % of control

Cc1ccc(SCc2cn(C3OC(CO)C(O)C3O)c(=O)[nH]c2=O)cc1 (stereo unspecified)
T/C (dose: 60.0 mg/kg/injection, schedule: Q01DX005 (ip), vehicle: Klucel (hydroxypropylcellulose) (HPC)): 95 % of control and 102 % of control
T/C (dose: 120.0 mg/kg/injection, schedule: Q01DX005 (ip), vehicle: Klucel (hydroxypropylcellulose) (HPC)): 95 % of control and 101 % of control
T/C (dose: 240.0 mg/kg/injection, schedule: Q01DX005 (ip), vehicle: Klucel (hydroxypropylcellulose) (HPC)): 92 % of control and 95 % of control

CCC(c1ccc(OCC(=O)N(CCCl)CCCl)cc1)C(CC)c1ccc(OCC(=O)N(CCCl)CCCl)cc1 (stereo unspecified)
T/C (dose: 100.0 mg/kg/injection, schedule: Q04DX002 (ip), vehicle: suspension in saline): 98 % of control
T/C (dose: 200.0 mg/kg/injection, schedule: Q04DX002 (ip), vehicle: suspension in saline): 97 % of control
T/C (dose: 400.0 mg/kg/injection, schedule: Q04DX002 (ip), vehicle: suspension in saline): 103 % of control

COc1c(O)c(O)c2c(c1O)C(=O)c1cc(C)cc(O)c1C2=O
T/C (dose: 5.0 mg/kg/injection, schedule: Q01DX009 (ip), vehicle: saline with Tween-80): 99 % of control
T/C (dose: 10.0 mg/kg/injection, schedule: Q01DX009 (ip), vehicle: saline with Tween-80): 103 % of control
T/C (dose: 20.0 mg/kg/injection, schedule: Q01DX009 (ip), vehicle: saline with Tween-80): 105 % of control

CCCCN(CCCC)CC(O)c1c(Cl)c2ccccc2c2ccccc12 (stereo unspecified)
T/C (dose: 25.0 mg/kg/injection, schedule: Q01DX009 (ip), vehicle: saline with Tween-80): 100 % of control
T/C (dose: 50.0 mg/kg/injection, schedule: Q01DX009 (ip), vehicle: saline with Tween-80): 93 % of control
T/C (dose: 100.0 mg/kg/injection, schedule: Q01DX009 (ip), vehicle: saline with Tween-80): 100 % of control

CN1C(c2ccccc2)CC(C)(O)CC1c1ccccc1 (stereo unspecified)
T/C [3]: 97 % of control
T/C [12]: 98 % of control

CCCCCCSc1nc2ccc(NC(C)=O)cc2s1
T/C [1]: 107 % of control
T/C [2]: 90 % of control

Cc1ccccc1-n1c(C)nc2c(cnn2C)c1=O
T/C [4]: 100 % of control
T/C [5]: 95 % of control
T/C [6]: 97 % of control

COc1cc(C(c2cc3c(cc2O)OCO3)N2CCN(C(c3ccc(O)c(OC)c3)c3cc4c(cc3O)OCO4)CC2)ccc1O (stereo unspecified)
T/C [3]: 89 % of control
T/C [12]: 92 % of control
T/C [13]: 95 % of control

CCOC(=O)C(C)P(=O)(OC)OC (stereo unspecified)
T/C [10]: 100 % of control
T/C [11]: 98 % of control
T/C (dose: 200.0 mg/kg/injection, schedule: Q01DX005 (ip), vehicle: saline): 103 % of control
